Laboratory results: patent publication US20240415801A1, “Methods and Compositions for Treating Fibroids” (Lundquist Institute for Biomedical Innovation at …, priority 2023, published 2024)

How the values were obtained:
[1] = Blood chemistry panel (Example 1); type: in vivo, SCID/Beige mice; details: 20 mg/kg daily i.p.
Procedure: After 8 weeks of treatment with either the vehicle or Bay, plasma chemistry was analyzed. Specifically, 100 μL of plasma was transferred into the Comprehensive Diagnostic Profile Rotor (#500-1038, Abaxis, Union City, CA, USA). Subsequently, the levels of glucose, creatinine, BUN, phosphorus, sodium, albumin, alkaline phosphatase, serum glutamic pyruvic transaminase (SGPT; ALT), total protein, globulin, total bilirubin, and amylase were assessed using the VetScan VS2 chemistry analyzer (Abaxis, Union City, CA, USA) as previously described.

[2] = system: fibroid xenografts; test: Total collagen enzyme-linked immunosorbent assay of xenografts (Example 1); type: in vivo, SCID/Beige mice; details: 20 mg/kg daily, 8 weeks, vs controls
Procedure: The total collagen content in xenografts was assessed in duplicate using the QuickZyme Total Collagen Assay Kit (QuickZyme Biosciences, Leiden, Netherlands), following the manufacturer's instructions as previously described. Absorbance readings were taken spectrophotometrically at a wavelength of 570 nm, and concentrations were determined by comparing sample optical density values to a standard curve. Total collagen levels were quantified as μg/ml of protein and reported as fold change relative to the vehicle group.

[3] = system: fibroid xenografts; test: Immunohistochemistry and Masson's trichrome staining of xenografts (Example 1); type: in vivo, SCID/Beige mice
Procedure: Tissues were fixed in 4% paraformaldehyde and subsequently embedded in paraffin, and 5-micron sections were cut and mounted onto glass slides. Staining procedures, including Masson's trichrome stain (HT15-1 KT, Sigma-Aldrich), and immunohistochemistry, were conducted as previously described. Primary antibodies utilized in this study included rabbit anti-Ki67 (dilution 1:250, 27309-1-AP, Proteintech Group, Inc, Rosemont, IL, USA), rabbit anti-cleaved caspase-3 (dilution 1:50, #9664, Cell Signaling Technology, Danvers, MA, USA), rabbit anti-CCND1 (dilution 1:50, #55506, Cell Signaling Technology), and mouse anti-E2F1 (dilution 1:50, sc-251, Santa Cruz Biotechnology, Inc., Dallas, TX, USA).

[4] = system: fibroid xenografts; test: Xenograft mouse fibroid model, tumor weight (Example 2); type: in vivo, ovariectomized CB-17 SCID/Beige mice; details: 5 mg/kg i.p. (every other day / three times per week), two months, vs matched controls
Description: Portions of uterine fibroids (intramural, 2-5 cm in diameters) (n=13) were obtained from patients at Harbor-UCLA Medical Center. Prior approval from the Institutional Review Board (18CR-31752-01 R) at the Lundquist Institute was obtained. Informed consent was obtained from all the patients participating in the study who were not taking any hormonal medications for at least 3 months prior to surgery. The fibroids used in this study were from African Americans (n=3), Hispanics (n=9) and Asians (n=1) women aged 35-57 years (mean 46±6.5 years). The MED12 mutation status of all fibroids was determined by PCR amplification and Sanger sequencing (Laragen Inc. Culver City, CA). […] The missense mutations in exon 2 included c.130G>A (p.Gly44Ser) (n=4), c.131 G>A (p.Gly44Asp) (n=2) and c.131 G>T (p.Gly44Val) (n=1). The tissues were snap frozen and stored in liquid nitrogen for further analysis as previously described (2, 3).
Portions of liver, kidney, heart were dissected and frozen.

[5] = system: fibroid xenografts; test: Histology and immunohistochemistry of xenografts (Example 2); type: in vivo, SCID/Beige mice; details: 5 mg/kg, 8 weeks
Description: After fixation with 4% paraformaldehyde and routine dehydration, a portion of xenograft samples were embedded in paraffin. To evaluate histologic characteristics, 5-μm-thick paraffin sections of xenografts were stained with hematoxylin and eosin (H-3502, Vector Laboratories, Inc.) and Masson's trichrome stain (HT15-1 KT, Sigma-Aldrich) according to the manufacturer's instructions.
For Immunohistochemistry, the xenografts were fixed with 4% paraformaldehyde in PBS, and subsequently transferred to PBS containing 30% sucrose (wt/vol) until equilibrated in cold (4° C.). After fixation, 5-μm-thick paraffin sections were treated three times with Histo-Clear™ (National Diagnostics, Atlanta, GA) for 5 min, and rehydrated by a sequential ethanol wash, and then incubated in target retrieval solution (Dako, Carpinteria, CA) in a microwave for 10 min in order to retrieve the antigens. For blocking, tissues were incubated for 10 minutes with 3% solution of H2O2 followed by incubation with PBS-5% normal goat serum-0.2% Triton X-100. Tissue sections were incubated with primary antibody rabbit anti-Ki67 (dilution 1:250, 27309-1-AP, Proteintech Group, Inc), rabbit anti-cleaved caspase-3 (dilution 1:50, #9664, Cell Signaling Technology), rabbit anti-CCND1 (dilution 1:50, #55506, Cell Signaling Technology) and mouse anti-E2F1 (dilution 1:50, sc-251, Santa Cruz Biotechnology, Inc.) overnight at 4° C. in a humidified chamber. The antigens were then visualized using biotinylated antibodies and streptavidin, conjugated with horseradish peroxidase. Control sections were incubated with the secondary antibody, with replacement of primary antibody with the dilution reagent (Dako). Diaminobenzidine (Dako) which served as the substrate. […] Immunostained sections were examined under a microscope (Olympus IX83; Olympus Surgical Technologies America) and five representative images of each slide were quantitatively analyzed with the use of Halo software (Indica Labs Inc.) and were averaged for comparative analysis between vehicle and […] treatment groups in a blinded fashion.

[6] = system: primary fibroid smooth muscle cells; details: refs [10, 93]; cited from earlier work

With `Cc1ccc(S(=O)(=O)/C=C/C#N)cc1` [Bay 11-7082] the “changes in blood chemistry including liver, kidney and pancreatic function” value ([1]; 8 weeks) was “no changes”, the “Albumin (mean ± SEM)” value ([1]; plasma after 8 weeks) was 3.5 ± 0.14 g/dL and the “Alkaline phosphatase (mean ± SEM)” value ([1]; plasma after 8 weeks) was 91.9 ± 20.05 U/l. For the same compound, the “Amylase (mean ± SEM)” value ([1]; plasma after 8 weeks) was 643.0 ± 36.82 U/l, the “BUN (mean ± SEM)” value ([1]; plasma after 8 weeks) was 27.1 ± 5.75 mg/dL and the “Creatinine (mean ± SEM)” value ([1]; plasma after 8 weeks) was 0.4 ± 0.03 mg/dL. The “Globulin (mean ± SEM)” value ([1]; plasma after 8 weeks) was 1.1 ± 0.24 g/dL, the “Glucose (mean ± SEM)” value ([1]; plasma after 8 weeks) was 261.0 ± 14.63 mg/dL and the “Phosphorus (mean ± SEM)” value ([1]; plasma after 8 weeks) was 10.1 ± 0.53 mg/dL. For the same compound, the “SGPT (ALT) (mean ± SEM)” value ([1]; plasma after 8 weeks) was 54.5 ± 8.71 U/l, the “Sodium (mean ± SEM)” value ([1]; plasma after 8 weeks) was 155.3 ± 1.35 mEq/l and the “Total bilirubin (mean ± SEM)” value ([1]; plasma after 8 weeks) was 0.3 ± 0.04 mg/dL. The “Total protein (mean ± SEM)” value ([1]; plasma after 8 weeks) was 4.6 ± 0.16 g/dL, the “total collagen protein levels” value [2] was “significant decrease” and the “expression of cell cycle markers CCND1 and E2F1 (IHC)” value ([3]; 20 mg/kg daily, 8 weeks) was “decreased expression”. For the same compound, the “expression of collagens (Masson's trichrome staining)” value ([3]; 20 mg/kg daily, 8 weeks) was “significant decrease”, the “expression of proliferation marker Ki67 (IHC)” value ([3]; 20 mg/kg daily, 8 weeks) was “significant reduction” and the “smooth muscle content (Masson's trichrome staining)” value ([3]; 20 mg/kg daily, 8 weeks) was “no significant differences”. The “Cleaved caspase 3 staining (IHC)” value ([3]; drug versus vehicle) was “no significant difference”, the “reduction in tumor weight” value [4] was 40% and the “cell proliferation: nuclei staining for Ki67, CCND1 and E2F1” value [5] was “reduced number of nuclei staining”. The “staining for collagen (Masson's trichrome, blue stain)” value [5] was “significant decrease”, the “staining of cleaved caspase 3 (apoptosis)” value [5] was “no significant change” and the “expression of miR-29c and miR-200c” value [6] was “induced”.
